Measurements taken from patent publication US20170022171A1, “2,5-DISUBSTITUTED CYCLOPENTANECARBOXYLIC ACIDS AND THEIR USE” (Bayer Pharma Aktiengesellschaft, priority 2014, published 2017).

Tests used:
Assay type in all cases: biochemical
MMP-1 = target: T1, MMP-1 (Homo sapiens, UniProt P03956); experiment: In vitro MMP-1 inhibition test
T1 construct: purchased R&D Systems 901-MP
T1 sequence (P03956 100-469): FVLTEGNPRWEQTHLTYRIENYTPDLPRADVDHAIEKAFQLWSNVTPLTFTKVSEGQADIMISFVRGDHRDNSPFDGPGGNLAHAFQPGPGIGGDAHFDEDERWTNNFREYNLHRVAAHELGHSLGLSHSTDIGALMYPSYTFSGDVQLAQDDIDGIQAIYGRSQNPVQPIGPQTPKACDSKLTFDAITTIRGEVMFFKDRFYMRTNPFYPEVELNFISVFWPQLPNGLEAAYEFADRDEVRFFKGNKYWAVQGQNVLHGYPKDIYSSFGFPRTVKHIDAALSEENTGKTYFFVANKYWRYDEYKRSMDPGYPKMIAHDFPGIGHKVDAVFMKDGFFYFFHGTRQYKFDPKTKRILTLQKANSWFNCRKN
Text: (§1) The MMP-mediated amidolytic cleavage of a suitable peptide substrate leads to an increase in fluorescent light here too. The signal intensity of the fluorescent light is directly proportional to the enzyme activity. The active concentration of a test compound at which half the enzyme is inhibited (50% signal intensity of the fluorescent light) is reported as the IC50 value.
(§2) Recombinant MMP-1 (from R&D Systems, 901-MP) is chemically activated in accordance with the manufacturer's instructions using APMA. 1 μl of the test compound to be analysed (as a solution in DMSO, suitable concentrations, for example, 1 nM to 30 μM) is pipetted into 24 μl of activated enzyme (final concentration, for example, 2 nM) in reaction buffer (50 mM Tris/HCl pH 7.5, 10 mM CaCl2, 150 mM NaCl, 0.05% Brij®-35) in a white 384-hole microtiter plate (MTP). The enzymatic reaction is started by adding the intramolecularly quenched Mca-Pro-Leu-Gly-Leu-Dpa(Dnp)-Ala-Arg-NH2 substrate (final concentration, for example, 10 μM; R&D Systems, ES-001), so as to result in a total test volume of 50 μl. The course of the MMP-1 reaction is measured by measuring the fluorescence intensity (excitation 320 nm, emission 410 nm) over a suitable period of time (for example over 120 min at a temperature of 32° C.).

[1] = target: T2, human macrophage elastase (HME/hMMP-12) (Homo sapiens, UniProt P39900); experiment: In vitro HME inhibition test (standard or high-sensitivity); settings: in some cases mean values
T2 construct: 0.5 nM HME; purchased R&D Systems 917-MP
T2 sequence (P39900 106-470): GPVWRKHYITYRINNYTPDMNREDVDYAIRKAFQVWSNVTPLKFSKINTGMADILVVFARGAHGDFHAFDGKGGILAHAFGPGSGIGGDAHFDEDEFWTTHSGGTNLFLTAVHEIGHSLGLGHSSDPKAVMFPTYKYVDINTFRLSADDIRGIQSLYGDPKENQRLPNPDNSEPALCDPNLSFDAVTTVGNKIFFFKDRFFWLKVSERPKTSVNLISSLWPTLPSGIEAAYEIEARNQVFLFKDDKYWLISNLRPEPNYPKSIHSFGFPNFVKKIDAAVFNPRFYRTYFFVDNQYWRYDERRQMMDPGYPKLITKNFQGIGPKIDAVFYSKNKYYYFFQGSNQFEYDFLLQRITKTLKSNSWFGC
Method in brief: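 Fluorogenic assay: 0.5 nM autoactivated HME with 5 µM Mca-Pro-Leu-Gly-Leu-Glu-Glu-Ala-Dap(Dnp)-NH2 in HEPES pH 7.4 buffer (NaCl, CaCl2, ZnCl2, EDTA, Brij), 2 h at 37 °C; ex 323/em 393 nm. IC50 from fluorescence versus concentration. High-sensitivity format: ~0.05 nM enzyme, ~16 h incubation.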

MMP-7 = target: T3, MMP-7 (Homo sapiens, UniProt P09237); experiment: In vitro MMP-7 inhibition test
T3 construct: purchased R&D Systems 907-MP
T3 sequence (P09237 95-267): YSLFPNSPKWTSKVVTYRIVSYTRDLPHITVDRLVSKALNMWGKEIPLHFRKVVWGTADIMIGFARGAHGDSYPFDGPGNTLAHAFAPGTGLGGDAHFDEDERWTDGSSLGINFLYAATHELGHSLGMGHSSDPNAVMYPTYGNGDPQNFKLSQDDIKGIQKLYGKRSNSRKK
Text: as §1
as §2, with “Recombinant MMP-7” for “Recombinant MMP-1”, “Systems, 907-MP)” for “Systems, 901-MP)”, “example, 0.5” for “example, 2”, “[…]” for “50 μl.”, “the MMP-7” for “the MMP-1”

MMP-9 = target: T4, MMP-9 (Homo sapiens, UniProt P14780); experiment: In vitro MMP-9 inhibition test
T4 construct: purchased R&D Systems 911-MP
T4 sequence (P14780 107-707 limits assumed): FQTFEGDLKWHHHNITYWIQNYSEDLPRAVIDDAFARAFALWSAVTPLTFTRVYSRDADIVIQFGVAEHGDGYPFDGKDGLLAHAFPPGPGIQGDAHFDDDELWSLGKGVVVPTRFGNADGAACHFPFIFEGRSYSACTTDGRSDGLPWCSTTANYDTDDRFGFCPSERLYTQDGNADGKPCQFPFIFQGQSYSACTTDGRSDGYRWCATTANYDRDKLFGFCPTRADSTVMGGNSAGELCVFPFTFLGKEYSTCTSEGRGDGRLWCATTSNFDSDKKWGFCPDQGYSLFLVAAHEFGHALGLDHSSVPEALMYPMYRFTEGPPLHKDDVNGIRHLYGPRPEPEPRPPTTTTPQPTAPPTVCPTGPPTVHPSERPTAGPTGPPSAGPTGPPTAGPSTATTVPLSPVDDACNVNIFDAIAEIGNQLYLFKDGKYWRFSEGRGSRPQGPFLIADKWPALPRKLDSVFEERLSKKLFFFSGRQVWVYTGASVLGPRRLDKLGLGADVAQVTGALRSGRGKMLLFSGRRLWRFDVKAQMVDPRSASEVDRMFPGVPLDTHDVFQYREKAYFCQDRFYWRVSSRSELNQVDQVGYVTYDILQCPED
Text: as §1
as §2, with “Recombinant MMP-9” for “Recombinant MMP-1”, “Systems, 911-MP)” for “Systems, 901-MP)”, “example, 0.1” for “example, 2”, “the MMP-9” for “the MMP-1”

O=C(O)[C@H]1[C@H](Cn2nnc3ccccc3c2=O)CC[C@@H]1C(=O)c1ccc(OCc2ccc(F)cc2)cc1 (racemic) [Example 1, (+/−)-(1RS,2RS,5SR)-2-{4-[(4-Fluorobenzyl)oxy]benzoyl}-5-[(4-oxo-1,2,3-benzotriazin-3(4H)-yl)methyl]cyclopentanecarboxylic acid]
IC50 (MMP-1): 5200 nM | IC50 [1]: 0.052 nM | IC50 (MMP-7): 1100 nM | IC50 (MMP-9): 4.7 nM

O=C(O)[C@H]1[C@H](Cn2nnc3ccccc3c2=O)CC[C@@H]1C(=O)c1ccc(OCc2cccc(Cl)c2)cc1 (racemic) [Example 2, (+/−)-(1RS,2RS,5SR)-2-{4-[(3-Chlorobenzyl)oxy]benzoyl}-5-[(4-oxo-1,2,3-benzotriazin-3(4H)-yl)methyl]cyclopentanecarboxylic acid]
IC50 (MMP-1): > 40000 nM | IC50 [1]: 0.51 nM | IC50 (MMP-7): 5300 nM | IC50 (MMP-9): 480 nM

O=C(O)[C@H]1[C@H](Cn2nnc3ccccc3c2=O)CC[C@@H]1C(=O)c1ccc(OCc2ccc(Cl)c(Cl)c2)cc1 (racemic) [Example 3, (+/−)-(1RS,2RS,5SR)-2-{4-[(3,4-Dichlorobenzyl)oxy]benzoyl}-5-[(4-oxo-1,2,3-benzotriazin-3(4H)-yl)methyl]cyclopentanecarboxylic acid]
IC50 (MMP-1): 16000 nM | IC50 [1]: 0.055 nM | IC50 (MMP-7): 4900 nM | IC50 (MMP-9): 900 nM

O=C(O)[C@H]1[C@H](Cn2nnc3ccccc3c2=O)CC[C@@H]1C(=O)c1ccc(OCC2CCCC2)cc1 (racemic) [Example 4, (+/−)-(1RS,2RS,5SR)-2-[4-(Cyclopentylmethoxy)benzoyl]-5-[(4-oxo-1,2,3-benzotriazin-3(4H)-yl)methyl]cyclopentanecarboxylic acid]
IC50 (MMP-1): 28000 nM | IC50 [1]: 0.049 nM | IC50 (MMP-7): 2200 nM | IC50 (MMP-9): 130 nM

O=C(O)[C@H]1[C@H](Cn2nnc3ccccc3c2=O)CC[C@@H]1C(=O)c1ccc(OCCC2CCCCC2)cc1 (racemic) [Example 5, (+/−)-(1RS,2RS,5SR)-2-[4-(2-Cyclohexylethoxy)benzoyl]-5-[(4-oxo-1,2,3-benzotriazin-3(4H)-yl)methyl]cyclopentanecarboxylic acid]
IC50 (MMP-1): > 40000 nM | IC50 [1]: 0.07 nM | IC50 (MMP-7): 2400 nM | IC50 (MMP-9): 960 nM

O=C(O)[C@H]1[C@H](Cn2nnc3ccc(C(F)(F)F)cc3c2=O)CC[C@@H]1C(=O)c1ccc(OCc2ccccc2)cc1 (racemic) [Example 11, (+/−)-(1RS,2RS,5SR)-2-[4-(Benzyloxy)benzoyl]-5-{[4-oxo-6-(trifluoromethyl)-1,2,3-benzotriazin-3(4H)-yl]methyl}cyclopentanecarboxylic acid]
IC50 (MMP-1): 3800 nM | IC50 [1]: 0.014 nM | IC50 (MMP-7): 87 nM | IC50 (MMP-9): 18 nM

O=C(O)[C@H]1[C@H](Cn2nnc3ccc(C(F)(F)F)cc3c2=O)CC[C@@H]1C(=O)c1ccc(OCc2ccc(F)cc2)cc1 (racemic) [Example 12, (+/−)-(1RS,2RS,5SR)-2-{4-[(4-Fluorobenzyl)oxy]benzoyl}-5-{[4-oxo-6-(trifluoromethyl)-1,2,3-benzotriazin-3(4H)-yl]methyl}cyclopentanecarboxylic acid]
IC50 (MMP-1): 2500 nM | IC50 [1]: 0.019 nM | IC50 (MMP-7): 160 nM | IC50 (MMP-9): 5.9 nM

Cc1cccc(COc2ccc(C(=O)[C@H]3CC[C@@H](Cn4nnc5ccc(C(F)(F)F)cc5c4=O)[C@@H]3C(=O)O)cc2)c1 (racemic) [Example 15, (+/−)-(1RS,2RS,5SR)-2-{4-[(3-Methylbenzyl)oxy]benzoyl}-5-{[4-oxo-6-(trifluoromethyl)-1,2,3-benzotriazin-3(4H)-yl]methyl}cyclopentanecarboxylic acid]
IC50 (MMP-1): 8300 nM | IC50 [1]: 0.05 nM | IC50 (MMP-7): 120 nM | IC50 (MMP-9): 230 nM

O=C(O)[C@H]1[C@H](Cn2nnc3ccc(C(F)(F)F)cc3c2=O)CC[C@@H]1C(=O)c1ccc(OCc2cccc(C(F)(F)F)c2)cc1 (racemic) [Example 18, (+/−)-(1RS,2SR,5RS)-2-{[4-Oxo-6-(trifluoromethyl)-1,2,3-benzotriazin-3(4H)-yl]methyl}-5-(4-{[3-(trifluoromethyl)benzyl]oxy}benzoyl)cyclopentanecarboxylic acid]
IC50 (MMP-1): > 40000 nM | IC50 [1]: 0.11 nM | IC50 (MMP-7): 910 nM | IC50 (MMP-9): 940 nM

O=C(O)[C@H]1[C@H](Cn2nnc3ccc(C(F)(F)F)cc3c2=O)CC[C@@H]1C(=O)c1ccc(OCCCc2ccccc2)cc1 (racemic) [Example 39, (+/−)-(1RS,2SR,5RS)-2-{[4-Oxo-6-(trifluoromethyl)-1,2,3-benzotriazin-3(4H)-yl]methyl}-5-[4-(3-phenylpropoxy)benzoyl]cyclopentanecarboxylic acid]
IC50 (MMP-1): > 40000 nM | IC50 [1]: 0.044 nM | IC50 (MMP-7): 730 nM | IC50 (MMP-9): 780 nM

O=C(O)[C@H]1[C@H](Cn2nnc3ccc(C(F)(F)F)cc3c2=O)CC[C@@H]1C(=O)c1ccc(OCC2CCCCC2)cc1 (racemic) [Example 40, (+/−)-(1RS,2RS,5SR)-2-[4-(Cyclohexylmethoxy)benzoyl]-5-{[4-oxo-6-(trifluoromethyl)-1,2,3-benzotriazin-3(4H)-yl]methyl}cyclopentanecarboxylic acid]
IC50 (MMP-1): 3800 nM | IC50 [1]: 0.048 nM | IC50 (MMP-7): 260 nM | IC50 (MMP-9): 170 nM

O=C(O)[C@H]1[C@H](Cn2nnc3ccc(C(F)(F)F)cc3c2=O)CC[C@@H]1C(=O)c1ccc(OCCCC2CCCCC2)cc1 (racemic) [Example 56, (+/−)-(1RS,2RS,5SR)-2-{4-(3-Cyclohexylpropoxy)benzoyl}-5-{[4-oxo-6-(trifluoromethyl)-1,2,3-benzotriazin-3(4H)-yl]methyl}cyclopentanecarboxylic acid]
IC50 (MMP-1): > 40000 nM | IC50 [1]: 0.2 nM | IC50 (MMP-7): 1400 nM | IC50 (MMP-9): 4900 nM

O=C(O)[C@H]1[C@H](Cn2nnc3ccc(C(F)(F)F)cc3c2=O)CC[C@@H]1C(=O)c1ccc(SCc2ccc(Cl)c(Cl)c2)cc1 (racemic) [Example 79, (+/−)-(1RS,2RS,5SR)-2-{4-[(3,4-Dichlorobenzyl)sulphanyl]benzoyl}-5-{[4-oxo-6-(trifluoromethyl)-1,2,3-benzotriazin-3(4H)-yl]methyl}cyclopentanecarboxylic acid]
IC50 (MMP-1): 15000 nM | IC50 [1]: 0.25 nM | IC50 (MMP-7): 1300 nM | IC50 (MMP-9): 3200 nM
